These are literature values, as cited in US20150030666A1, “ADHESIVE SKIN PATCH” (KM TRANSDERM LTD., priority 2011, published 2015).

For this data set the following is noted: in vivo, po.

Regarding `O=C(O[C@H]1CN2CCC1CC2)N1CCc2ccccc2[C@@H]1c1ccccc1` [solifenacin succinate, (3R)-1-azabicyclo[2.2.2]oct-3-yl(1S)-1-phenyl-3,4-dihydroisoquinoline-2(1H)-carboxylate], the half-life in blood result is “about 50 hr”.
